How the values were obtained:
Format in all cases: biochemical
SETD2 [1] = target: T1, SETD2 (Homo sapiens, UniProt Q9BYW2); test: Single turnover time course of ssK36 methylation; conditions: 5 µM substrate, 6 µM enzyme; average ± SEM
T1 construct: SETD2 catalytic SET domain (amino acids 1347–1711, UniProt No: Q9BYW2); made in house; host or cells: E. coli
T1 sequence (Q9BYW2 1347-1711): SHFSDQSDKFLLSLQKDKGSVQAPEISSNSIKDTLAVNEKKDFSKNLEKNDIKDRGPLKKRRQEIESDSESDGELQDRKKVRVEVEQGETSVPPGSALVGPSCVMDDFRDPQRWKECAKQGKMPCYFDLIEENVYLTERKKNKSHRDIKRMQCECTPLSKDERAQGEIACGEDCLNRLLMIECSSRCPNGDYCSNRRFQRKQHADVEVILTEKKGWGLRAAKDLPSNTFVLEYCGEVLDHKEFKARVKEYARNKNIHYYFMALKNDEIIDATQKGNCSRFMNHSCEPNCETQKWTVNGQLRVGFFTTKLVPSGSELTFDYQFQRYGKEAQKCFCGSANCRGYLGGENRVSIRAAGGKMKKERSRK
Description: The H3K36 (27–43) and the H3K36M (27–43) peptides were purchased from Intavis AG (Köln, Germany) and the ssK36 peptide (29–43) and the ssK36M peptide (29–43) were from Innovative Peptide Solutions (Berlin, Germany). If not indicated otherwise, peptide methylation reactions were performed using 20 µM peptide and 6 µM SETD2 in 20 µl methylation buffer supplemented with 0.76 µM radioactive labeled AdoMet (PerkinElmer) for 3 h at 25 °C. The reactions were halted by the addition of Tricine-SDS-PAGE loading buffer and incubation for 5 min at 95 °C. Afterward the samples were separated by Tricine-SDS-PAGE, which was followed by the incubation of the gel in amplify NAMP100V (GE Healthcare) for 45 min on a shaker and drying of the gel for 2 h at 55 °C in vacuum. The signals of the transferred radioactive labeled methyl groups were detected by autoradiography using a hyperfilm^TM high performance autoradiography film (GE Healthcare) at −80 °C in the dark. The film was developed with an Optimax Typ TR machine after different exposure times.
Time courses of ssK36 methylation were analyzed by fitting to an exponential reaction progress curve (Eq. 1). Initial rates of single turnover reactions were determined using the first derivative of eq. 1 at t = 0. Signal=BL+F×1−exp^−kst×t […]

SETD2 [2] = target: T1, SETD2; test: Peptide SPOT array methylation of H3K36 (29–43) variants, super-substrate design (Fig. 2a)
Excerpt: Based on these observations, we aimed to explore, if better substrates than H3K36 can be designed for SETD2. We synthesized peptide SPOT arrays including H3K36 (29–43) as a positive control and the H3K36A mutant as a negative control, in which up to 5 combined mutations were systematically introduced that converted the original H3K36 residues into residues that are more favored (Fig. 2a and Supplementary Table 1). This peptide array was methylated by SETD2 as described above and the methylation signal was captured by autoradiography.
Fig. 2 Design of an optimized SETD2 peptide substrate and analysis of its methylation. a Variants of the H3K36 (29–43) peptide containing up to five mutations (Supplementary Table 1) were synthesized on a cellulose membrane and methylated by SETD2. The signal of the transferred radioactive methyl groups was detected by autoradiography. Spots A1 and B15 contain the H3K36 sequence, A2 and B16 the H3K36A peptide. Two films with different exposure times are shown to visualize weaker methylated spots as well. b Comparison of the methylation of purified super-substrate (ssK36) and the H3K36 peptides. […] Methylation reactions were conducted using 20 µM peptide and 6 µM enzyme. The lower panels display autoradiography films after different exposure times allowing to compare the methylation levels of the different samples. For comparison, different dilutions of the methylated ssK36 were loaded as indicated. c Time course of ssK36 peptide methylation determined under single turnover conditions using 5 µM substrate and 6 µM enzyme. […] The gels with the radioactive ssK36 (5 µl loaded per well) and H3K36 peptides (20 µl loaded per well) were exposed together to the same x-ray film. […] An enlargement of the H3K36 data with adjusted y-axis scale is shown in Supplementary Fig. 3d.
Peptide arrays containing fifteen amino acid long peptides were synthesized using the SPOT synthesis method[48] with an Autospot peptide array synthesizer (Intavis AG, Köln, Germany). After synthesis, the obtained membranes were pre-incubated in methylation buffer (20 mM Tris/HCl pH 9, 0.01% Triton X-100, 10 mM DTT, 1.5 mM MgCl2) for 5 min on a shaker. Thereafter, the membranes were incubated in methylation buffer supplemented with 0.76 µM radioactively labeled AdoMet (PerkinElmer) and 3–6 µM SETD2 enzyme for 60 min on a shaker. After methylation, the membranes were washed 5 times for 5 min in wash buffer (100 mM NH4HCO3, 1% SDS) and incubated in amplify NAMP100V (GE Healthcare) for 5 min. This was followed by the exposure of the membranes to a hyperfilm^TM high performance autoradiography (GE Healthcare) film at −80 °C in the dark. The films were developed with an Optimax Typ TR machine after different exposue times. For quantification the signal intensities were measured with the Phoretix^TM software and analyzed with Microsoft Excel.

SUV39H2 = test: Methylation of ssK36 by SUV39H2; conditions: peer review file Figure R1
NSD2 = test: Peptide methylation by NSD2; conditions: peer review file
Excerpt: We, therefore, repeated the peptide array used for the development of the SETD2 super-substrate, which is shown in Figure 2A of our manuscript for NSD1 and NSD2. […]
that this mutation specifically increases the activity of these two enzymes. In contrast, with […]
combined with H39N/K. Importantly, in case of SETD2 H39N only has an effect in the context of the other mutations in ssK36. We conclude that the ssK36 substrate is specifically optimized for SETD2 as expected given the workflow of our experiments. The finding that H39N increases the activity of NSD1 and NSD2 is interesting and deserves additional work. It […]
conducted with NSD1 and NSD2. The SETD2 panel is taken from the manuscript for comparison. The table indicates the peptide compositions. Note, the gradual increase of methylation with increasing number of mutations in the case of SETD2. In case of NSD1 and NSD2, increased methylation is solely due to the H39N mutation , which has a weaker […]

single turnover methylation rate constant kst (SETD2 [1]): 4.07 ± 0.39 h⁻¹
fold stronger methylation of ssK36 than H3K36 (SETD2 [2]; densitometric analysis of 5 pairs of H3K36 and ssK36 spots on independent arrays, ± SD): 70 ± 10 fold
Sequence: APRFGGVKRPNRYRP [ssK36, super-substrate peptide with four amino acid exchanges (A31R, T32F, K37R, H39N)]
peptide array methylation of H3K36 variants (in words) (SETD2 [2]; SPOT array, 0.76 µM radioactive AdoMet, 3–6 µM SETD2, 60 min, pH 9, autoradiography): one of the most strongly methylated peptides
methylation by SUV39H2 (SUV39H2): Lack of methylation
methylation by NSD2 (NSD2): better substrate than H3K36
